Source: patent publication US6335339B1, “Triazine antiviral compounds” (Scriptgen Pharmaceuticals, Inc., priority 1998, dated 2002)

These compounds were tested on HBV (assay: antiviral assay in 2.2.15 cells producing HBV (virion DNA dot blot)). Conditions: Hepatitis B virus, 216 h, read-out: Antiviral EC50 (μM).
Type: cell-based, Hepatitis B virus
Text: Several cell lines and cell culture assays have been developed to identify potential therapeutics effective against chronic HBV infection. One of these cell lines, 2.2.15, has been used in a standardized assay that has repeatedly proven to be an accurate model of chronic cellular HBV replication and a predictive model of antiviral response for chronic hepadnaviral infection in vivo. 2.2.15 cells contain copies of the complete HBV genome integrated into the cell's genome, and 2.2.15 cells are not susceptible to infection by HBV. (Sells, M. A. et al., J. Virol. 62 (8): 2836-2844 (1988)). These cells express HBV genes producing complete HBV particles capable of infecting chimpanzees (Acs, G. et al., Proc. Natl. Acad. Sci. USA 84 (13): 4641-4644 (1987)). Briefly, 2.2.15 cells are cultured and pretreated with a test compound for about 9 days, at which point the media are harvested and subjected to dot-blot hybridization to detect HBV virion DNA.
The antiviral activity of the compounds of the present invention is measured by the methods described in Korba and Gering, Antiviral Res. 19: 55-70 (1992).
This assay format is well suited to the screening of test compounds for potential antiviral activity. The assay provides a threshold assessment of antiviral activity by measuring (i) the levels of HBV virion release from the cells and (ii) cytotoxicity. Two rows of cells were used for each compound, and 4 rows for the assay controls (two for untreated, and two for positive antiviral control, e.g., 3TC). After incubating in the presence of test compound for 9 days, the media were harvested, transferred to 96-well U-bottom plates, and centrifuged. The supernatants were transferred to tubes for dot blot hybridization analysis of HBV virion DNA. The medium was aspirated off of the toxicity plates and discarded. Toxicity plates were then incubated with neutral red dye (MTT can also be used if preferred), washed with DPBS, developed with an acetic acid-ethanol solution, and assayed in a plate reader.
1. 2.2.15 cells were seeded into 96-well, flat bottom tissue culture plates as described above. Duplicate plates were used for the antiviral treatments for each test compound (up to 8 compounds per pair of plates); after three to four days, cells were confluent and medium was yellow in color; the medium was removed and replaced with 100 μl RP2 24 hours before the beginning of drug treatment.
i) For each compound, a total of 4 concentrations were examined; this required 9 sets of 4 sterile, 1.1 ml minitubes (36 tubes per compound). Into the first tube of each set, sufficient compound was aliquoted to make up 700 μl (for 10-fold dilution series) or 980 μl (for 3.3-fold dilution series) of the highest test concentration; the other tubes were left empty.
i) For a 10-fold dilution series: to the first (compound containing) tube was added 700 μl (175 μl×4). 630 μl (210 μl×3) RP2 culture medium was added to the remaining 3 tubes. The first tube was mixed by pipeting up and down with a pipetman (a multichannel pipetman permits the simultaneous processing of multiple compounds). 70 μl of test compound-containing medium were serially transferred from the first tube to the other 3 tubes, taking care to thoroughly mix each tube before transferring medium;
b) 100 μl of each dilution of every compound was added to each of 6 wells (3 wells per plate) using the configuration listed below as an example. The lowest concentration was added first, and the same tips were used to add the higher concentrations. The untreated cells received 100 μl RP2 per well (untreated cells have to be carried on only one pair of the antiviral assay plates).
c) Treatments were repeated daily for 9 days. For the last day of treatment, and additional 200 μl RP2 were added to each well of the antiviral assay plates after the wells are treated with the test compounds (a total of 300 μl medium per well).
6. […]

| SMILES | EC50 [µM] |
| --- | --- |
| CC(C)(C)Nc1nc(NCc2ccccc2)nc(N/N=C/c2ccccc2F)n1 [Compound 93, 2-fluorobenzaldehyde N-[4-(benzylamino)-6-(tert-butylamino)-1,3,5-triazin-2-yl]hydrazone] | 0.503 |

Same assay, conditions: Hepatitis B virus, 216 h; extra-cellular virus reduced by 50%; 2.2.15 cells, 9 days treatment; read-out: Antiviral EC50

| SMILES | EC50 [µM] |
| --- | --- |
| CC(C)(C)Nc1nc(NCc2ccccc2)nc(N/N=C/c2ccccc2F)n1 [Compound 93, 2-fluorobenzaldehyde N-[4-(benzylamino)-6-(tert-butylamino)-1,3,5-triazin-2-yl]hydrazone] | 0.006 |

Same assay, conditions: extra-cellular virus reduced by 50%; 2.2.15 cells, 9 days treatment; read-out: Antiviral EC50

| SMILES | EC50 [µM] |
| --- | --- |
| C(=NNc1nc(Nc2ccccc2)nc(N2CCCCC2)n1)c1ccccc1 [Compound 3] | 4.8 |
| Cc1[nH]c2ccccc2c1C=NNc1nc(Nc2ccccc2)nc(N2CCOCC2)n1 [Compound 4] | 3.4 |
| FC(F)(F)c1cccc(Nc2nc(Nc3cccc(Br)c3)nc(N3CCOCC3)n2)c1 [Compound 38] | 0.592 |
| CCCCN(CCCC)c1nc(NN=Cc2c[nH]c3ccccc23)nc(Nc2ccc([N+](=O)[O-])cc2)n1 [Compound 39] | 1 |
| Cc1ccc(Nc2nc(NN=Cc3ccc(Cl)c(Cl)c3)nc(Nc3ccccc3)n2)c(C)c1 [Compound 40] | 30 |
| O=[N+]([O-])c1ccc(Nc2nc(N/N=C/c3cccc(Cl)c3)nc(N3CCCCC3)n2)cc1 [Compound 41] | 36 |
| Cc1ccc(Nc2nc(NN=Cc3ccc(Cl)cc3)nc(Nc3ccccc3)n2)c(C)c1 [Compound 42] | 6.1 |
| Brc1cc2c(cc1C=NNc1nc(NCc3ccccc3)nc(Nc3ccccc3)n1)OCO2 [Compound 43] | 0.841 |
| COc1ccc(C=NNc2nc(Nc3ccc([N+](=O)[O-])cc3)nc(N3CCCCC3)n2)cc1 [Compound 44] | 4.8 |
| O=[N+]([O-])c1ccc(C=NNc2nc(Nc3ccccc3)nc(NC3CCCCC3)n2)cc1 [Compound 46] | > 100 |
| Cc1ccc(Nc2nc(NN=Cc3cccc(Br)c3)nc(Nc3ccccc3)n2)c(C)c1 [Compound 49] | 1.2 |
| Cc1[nH]c2ccccc2c1C=NNc1nc(NCc2ccccc2)nc(Nc2ccccc2)n1 [Compound 50] | 29 |
| Cc1ccc(Nc2nc(NN=Cc3ccc4c(c3)OCO4)nc(Nc3ccccc3)n2)c(C)c1 [Compound 51] | 15 |
| O=[N+]([O-])c1cc(C=NNc2nc(Nc3ccccc3)nc(N3CCOCC3)n2)ccc1Cl [Compound 52] | 4.5 |
| Oc1ccc(Nc2nc(Nc3cccc(C(F)(F)F)c3)nc(N3CCOCC3)n2)cc1 [Compound 53] | 1.2 |
| CC(C)c1ccc(C=NNc2nc(Nc3ccc([N+](=O)[O-])cc3)nc(N3CCCCCC3)n2)cc1 [Compound 56] | > 100 |
| COc1ccc(C=NNc2nc(Nc3ccccc3)nc(Nc3ccc(C)cc3C)n2)c(OC)c1 [Compound 61] | 3.7 |
| CC(C)c1ccc(C=NNc2nc(Nc3ccc([N+](=O)[O-])cc3)nc(N3CCCCC3)n2)cc1 [Compound 62] | > 100 |
| CCN(CC)c1nc(N/N=C/c2ccc([N+](=O)[O-])cc2)nc(Nc2cc(C)ccc2C)n1 [Compound 63] | > 100 |
| CNc1nc(NN=Cc2ccccc2[N+](=O)[O-])nc(Nc2ccccc2)n1 [Compound 65] | > 100 |
| CC(C)(C)Nc1nc(NCc2ccccc2)nc(NN=Cc2ccc3c(c2)OCO3)n1 [Compound 67] | > 100 |
| CCN(CC)c1nc(NN=Cc2ccc(F)cc2)nc(Nc2ccc([N+](=O)[O-])cc2)n1 [Compound 68] | > 100 |
| CCCCN(CCCC)c1nc(NN=C(C)c2ccccc2)nc(Nc2ccc([N+](=O)[O-])cc2)n1 [Compound 74] | > 100 |
| CCN(CC)c1nc(NN=Cc2cc([N+](=O)[O-])ccc2OC)nc(Nc2cc(C)ccc2C)n1 [Compound 85] | > 100 |
| Cc1[nH]c2ccccc2c1C=NNc1nc(Nc2ccccc2)nc(N2CCCCC2)n1 [Compound 88] | 4.8 |
| C(=Cc1ccccc1)C=NNc1nc(NCc2ccccc2)nc(Nc2ccccc2)n1 [Compound 91] | > 100 |
| COc1ccccc1C=NNc1nc(Nc2ccc([N+](=O)[O-])cc2)nc(Nc2ccc(C)c(C)c2)n1 [Compound 94] | > 100 |
